According to patent publication US10532040B2, “Methods of treating cancer with herbacetin” (REGENTS OF THE UNIVERSITY OF MINNESOTA, priority 2011, dated 2020):
“Also recorded” adds a separate entry of the source.

Experiments:
HCT116 cells = test: HCT116 xenograft in athymic nude mice; type: in vivo, mouse
Description: Athymic nude mice were inoculated in the right flank with HCT116 cells. Tumors were allowed to grow to an average of 40 mm^3 and then mice were divided into four equal groups with the same average tumor volume (FIG. 10). Treatment was initiated on Day 8 and continued to Day 20. […] No difference between treatment with 0.4 mg/kg B.W. herbacetin, 2 mg/kg B.W herbacetin or 200 mg/kg DFMO was observed.

ODC [1] = target: T1, ODC (Homo sapiens, UniProt P11926); test: pull-down assay with herbacetin-conjugated Sepharose 4B beads (recombinant ODC or HCT116 lysate); type: binding; conditions: recombinant ODC protein or HCT116 cell lysate, Western blot
T1 sequence (P11926 1-461): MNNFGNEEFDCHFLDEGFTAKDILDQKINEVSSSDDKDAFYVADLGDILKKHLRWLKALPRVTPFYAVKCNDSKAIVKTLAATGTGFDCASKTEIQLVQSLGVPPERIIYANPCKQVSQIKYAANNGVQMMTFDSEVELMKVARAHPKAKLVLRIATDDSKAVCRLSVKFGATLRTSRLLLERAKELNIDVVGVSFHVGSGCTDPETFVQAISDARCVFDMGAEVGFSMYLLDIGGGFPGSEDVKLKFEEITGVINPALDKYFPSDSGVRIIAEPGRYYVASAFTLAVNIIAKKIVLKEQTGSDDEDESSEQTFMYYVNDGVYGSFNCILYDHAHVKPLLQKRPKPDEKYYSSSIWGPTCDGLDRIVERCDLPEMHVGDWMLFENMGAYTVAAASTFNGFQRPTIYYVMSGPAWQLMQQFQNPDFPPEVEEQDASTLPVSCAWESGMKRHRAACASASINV
Description: A recombinant human ODC protein (200 ng) or total cell lysates (500 μg) to were incubated with herbacetin Sepharose 4B (or Sepharose 4B only as a control) beads (50 μl, 50% slurry) in reaction buffer (50 mM Tris pH 7.5, 5 mM EDTA, 150 mM NaCl, 1 mM DTT, 0.01% NP40, 2 μg/mL bovine serum albumin). After incubation with gentle rocking overnight at 4° C., the beads were washed 5 times with buffer (50 mM Tris pH 7.5, 5 mM EDTA, 150 mM NaCl, 1 mM DTT, 0.01% NP40) and binding was determined by Western blotting.

APC^min+ mice = test: APC^min+ mouse model, 8 weeks; type: in vivo
From the text: Male C57BL/6J^(Min/+) mice were obtained from Jackson Laboratory and maintained under “specific pathogen-free” conditions according to the guidelines established by the University of Minnesota Institutional Animal Care and Use Committee. APC^min+ male mice were bred with C57BL/6J APC wildtype female mice. The progeny were genotyped by PCR assay to determine whether they were heterozygous for the min allele or were homozygous wildtype. APC^min+ male or female progeny were randomly assigned to groups after weaning at 3 weeks. Mice (5˜6 weeks old) were divided into 4 groups: 1) untreated vehicle group (n=12); 2) mice treated with 0.4 mg herbacetin/kg of body weight (n=13); 3) mice treated with 2 mg herbacetin/kg of body weight (n=13); and mice treated with 100 mg difluoromethylornithine (DFMO)/kg of body weight (n=10). Herbacetin, DFMO, or vehicle was injected 3 times a week for 8 weeks.

ODC [2] = target: T1, ODC; test: ODC activity in colon cancer cells (HCT116, DLD-1 lysates); type: cell-based; set-up: endogenous in cells; host or cells: HCT116 and DLD-1 colon cancer cells (lysates); conditions: compared with DFMO
Description: FIGS. 5A-5E. The effect of herbacetin on ODC activity was assessed in (a) DLD-1 and (b) HCT116 colon cancer cells. Cell lysates were incubated for 15 min with reaction buffer and different doses of herbacetin or DFMO and then incubated at 37° C. for 1 h. Herbacetin (c) and kaempferol (d) were modeled as allosteric inhibitors with the ODC crystal structure. (e) The effect of herbacetin or kaempferol on ODC activity was assessed using a human ODC recombinant protein. Each reaction was incubated at 37° C. for 1 h and ODC activity was measured as the release of CO2 from L-[1-C^14] ornithine. Data are represented as means±S.D. of triplicate values. The asterisk (*) indicates a significant difference (p<0.05) between herbacetin-treated samples compared to untreated or kaempferol-treated samples.
ODC activity was measured as the release of CO2 from L-[1-C^14] ornithine as previously described ([…]).

[3] = tested on: SKH-1 hairless mice, DMBA/TPA-induced skin tumors; test: DMBA/TPA two-stage skin carcinogenesis mouse model, 20 weeks; type: in vivo
From the text: Hairless SKH:HR-1-hrBr (SKH-1) mice were obtained from Charles River and were maintained under “specific pathogen-free” conditions following the guidelines established by the University of Minnesota Institutional Animal Care and Use Committee. Mice (8˜9 weeks old) were divided into five groups: 1) DMBA+vehicle group (n=20); 2) DMBA-initiated (200 nmol) and TPA-promoted group (17 nmol; n=20); 3) DMBA/TPA+100 nmol of herbacetin (n=20) group; 4) DMBA/TPA+500 nmol of herbacetin group (n=20); 5) DMBA+500 nmol of herbacetin group (n=20). One week after initiation, 17 nmol of TPA in acetone was topically applied twice weekly until the termination of the experiment at 20 weeks. When used, each dose of herbacetin was dissolved in 0.2 ml of 10% H2O in acetone and then topically applied to dorsal mouse skin at 30 min before TPA treatment. The number and volume of tumors per mouse was recorded weekly. The results are expressed as the percent of mice with tumors (incidence), average tumor volumes (size) and average number of tumors per mouse (multiplicity).

[4] = herbacetin 0.4 or 2 mg/kg, DFMO 100 mg/kg, 3 times/week for 8 weeks, vs vehicle
[5] = herbacetin 100 or 500 nmol topical before TPA, relative to TPA-treated group

Question: `O=c1c(O)c(-c2ccc(O)cc2)oc2c(O)c(O)cc(O)c12` [herbacetin, 3,5,7,8,4′-Pentahydroxyflavone] was tested. Which “potency as therapeutic agent relative to DFMO” value (HCT116 cells; based on concentration) did it give?
Answer: much more potent

Question: What about the “tumor volume, comparison between treated groups” value (HCT116 cells; herbacetin 0.4 mg/kg, 2 mg/kg, DFMO 200 mg/kg) of the same molecule?
Answer: No difference

Question: What about the “tumor volume, treated groups vs vehicle-treated group” value (HCT116 cells; herbacetin 0.4 or 2 mg/kg B.W., DFMO 200 mg/kg, Day 8 to Day 20) of the same molecule?
Answer: vehicle-treated group were significantly large in volume than any of the three treated groups

Question: What about the “binding to ODC” value (ODC [1]) of the same molecule?
Answer: directly binds to ODC; also recorded: bind to ornithine decarboxylase (ODC)

Question: What about the “anemia (bloody stools)” value (APC^min+ mice; 0.4 or 2 mg/kg, 8 weeks) of the same molecule?
Answer: seemed to reduce anemia

Question: What about the “tolerability: signs of toxicity, body weight loss” value (APC^min+ mice; 8 weeks treatment) of the same molecule?
Answer: without overt signs of toxicity or significant body weight loss

Question: And the polyp number (APC^min+ mice; [4])?
Answer: significantly suppressed

Question: And the polyp size (APC^min+ mice; [4])?
Answer: significantly suppressed

Question: What about the “overall appearance of mice” value (APC^min+ mice; vs vehicle- or DFMO-treated mice) of the same molecule?
Answer: appeared healthier

Question: What about the “suppression of ODC activity” value (ODC [2]) of the same molecule?
Answer: more effectively; also recorded: markedly more effective than DFMO

Question: And the “tumors in herbacetin only (no TPA) group” value ([3]; DMBA + 500 nmol herbacetin, no TPA)?
Answer: No tumors were observed

Question: And the “ODC activity in skin tumors” value ([3]; TPA-induced skin tumor tissue)?
Answer: significantly inhibited ODC activity

Question: And the “number of skin tumors” value [3, 5]?
Answer: strongly suppressed

Question: And the “volume of skin tumors” value [3, 5]?
Answer: strongly suppressed

Question: And the “ODC downstream proteins such as ERK and RSK in skin tumors” value ([3]; immunoblot of TPA-induced skin tumors)?
Answer: strongly suppressed
